The values that follow come from ChEMBL document CHEMBL1240490, “Novel carbamates as orally active acetylcholinesterase inhibitors found to improve scopolamine-induced cognition impairment: pharmacophore-based virtual screening, synthesis, and pharmacology” (J Med Chem, 2010).

The target in assay [1] is T1, Acetylcholinesterase (Homo sapiens, UniProt P22303).
Description: (§1) Inhibition of human AChE by Ellmans test
Assay [2] addresses T1, Acetylcholinesterase. The source holds these as a separate data set.
Description: as §1
The subject of assay [3] is Caenorhabditis elegans. Description: Inhibition of ACh release in Caenorhabditis elegans N2 N2. It is filed as functional, organism-based.

The structures appear in SMILES notation. Activity calls are given as the source filed them. The calls are words filed in the database; no cut-off is given here.

T1 sequence (P22303 whole entry): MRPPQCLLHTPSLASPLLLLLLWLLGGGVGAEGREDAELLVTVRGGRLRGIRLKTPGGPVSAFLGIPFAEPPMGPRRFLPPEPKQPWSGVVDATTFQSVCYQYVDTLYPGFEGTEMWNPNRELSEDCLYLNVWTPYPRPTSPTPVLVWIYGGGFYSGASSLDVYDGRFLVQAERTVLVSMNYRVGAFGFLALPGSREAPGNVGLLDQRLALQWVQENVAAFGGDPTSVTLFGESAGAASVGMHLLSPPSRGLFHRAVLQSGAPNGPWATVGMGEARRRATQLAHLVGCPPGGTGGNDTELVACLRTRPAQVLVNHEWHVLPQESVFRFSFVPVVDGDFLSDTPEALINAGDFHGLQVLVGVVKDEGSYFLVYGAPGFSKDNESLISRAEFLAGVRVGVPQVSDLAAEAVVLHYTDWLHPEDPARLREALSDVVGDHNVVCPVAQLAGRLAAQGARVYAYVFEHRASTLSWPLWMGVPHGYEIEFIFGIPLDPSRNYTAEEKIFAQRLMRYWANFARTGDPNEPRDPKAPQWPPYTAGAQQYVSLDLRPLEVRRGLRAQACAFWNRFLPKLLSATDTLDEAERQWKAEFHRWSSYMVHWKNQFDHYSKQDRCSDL

As to `Cc1cc2c(cc1OC(=O)Nc1ccccc1)[C@]1(C)CCN(C)[C@@H]1N2C`, the logIC50 in assay [1] amounted to 2.41. A word on the IC50: it is the concentration that inhibits the measured activity by half. A low value points to higher potency. In assay [2], `CC(C)c1ccc(NC(=O)Oc2ccc3c(c2)C2(C)COC(O3)O2)cc1` (stereo not drawn) registered an IC50 of 4300 nM. In assay [1], this compound came in with a logIC50 of 3.63. For `CNC(=O)Oc1ccc2c(c1)[C@]1(C)CCN(C)[C@@H]1N2Cc1ccccc1` the same measures were 161 nM and 2.21. `CCCCCCNC(=O)Oc1ccc2c(c1)CCCN2Cc1ccccc1`: the inhibition result in assay [3] is “Active”. With `CN1CC[C@]2(C)c3cc(OC(=O)Nc4ccccc4)ccc3NC12` (stereo partly drawn), the logIC50 in assay [1] came out at 3.75. `Cc1ccc(C)c(NC(=O)Oc2ccc3c(c2)[C@]2(C)CCN(C)[C@@H]2N3C)c1` gave a logIC50 in assay [1] of 1.42. In assay [1], `CN1CC[C@]2(C)c3cc(OC(=O)Nc4ccccc4)ccc3N(Cc3ccccc3)C12` (stereo partly drawn) had a logIC50 of 4.05. `Cc1ccccc1NC(=O)Oc1ccc2c(c1)[C@]1(C)CCNC1N2C` (stereo partly drawn) came in with a logIC50 in assay [1] of 1.23. The compound `CCNC(=O)Oc1ccc2c(c1)C1(C)COC(O2)O1` (stereo not drawn) had an IC50 in assay [2] of 387 nM. In assay [1], this compound yielded a logIC50 of 2.59. Consider `Cc1ccccc1NC(=O)Oc1ccc2c(c1)[C@]1(C)CCN(C)[C@@H]1N2`, for which, in assay [2], the IC50 amounted to 40 nM. Besides, the logIC50 in assay [1] was 1.6. For the compound `C[C@@]12CCN(Cc3ccccc3)[C@@H]1N(Cc1ccccc1)c1ccc(OC(=O)Nc3ccccc3)cc12`, in assay [2], half-maximal inhibition (IC50) was put at 41100 nM. Further, the logIC50 in assay [1] is 4.61. Compound `CN1CC[C@]2(C)c3cc(OC(=O)Nc4ccccc4)ccc3N(C)C12` (stereo partly drawn) returned a logIC50 in assay [1] of 3.54. For `CCNC(=O)Oc1ccc2c(c1)[C@]1(C)CCN(C)[C@@H]1N2C`, in assay [1], the logIC50 is 1.97.

For the compound `Cc1cccc(C)c1NC(=O)Oc1ccc2c(c1)[C@]1(C)CCN(C)[C@@H]1N2C`, the logIC50 in assay [1] came out at 2.89. The compound `CN1CC[C@@]2(C)c3cc(OC(=O)Nc4ccccc4)ccc3N(Cc3ccccc3)[C@@H]12` returned an IC50 in assay [2] of 245 nM. In assay [1], this compound displayed a logIC50 of 2.39.

`Cc1ccccc1NC(=O)Oc1ccc2c(c1)[C@]1(C)CCN[C@@H]1N2` displayed an IC50 in assay [2] of 830 nM. Further, the logIC50 in assay [1] came out at 2.92. In assay [1], `CNC(=O)Oc1ccc2c(c1)[C@]1(C)CCNC1N2` (stereo partly drawn) had a logIC50 of 3.17. Turning to `CNC(=O)Oc1ccc2c(c1)[C@]1(C)CCN(C)[C@@H]1N2C=O`, inhibition in assay [2] was half-maximal at 2500 nM (IC50). In assay [1], the logIC50 is 3.4.

`Cc1cc(C)c(NC(=O)Oc2ccc3c(c2)[C@]2(C)CCN(C)[C@@H]2N3C)c(C)c1` came in with a logIC50 in assay [1] of 3.11. `O=C(Nc1ccccc1Cl)Oc1ccc2c(c1)CCCN2Cc1ccccc1` had an IC50 in assay [2] of 3310 nM. With `CC(C)c1ccccc1NC(=O)Oc1ccc2c(c1)[C@]1(C)CCN(C)[C@@H]1N2C`, in assay [1], the logIC50 amounted to 1.18. Consider `CN1CC[C@@]2(C)c3cc(OC(=O)N4CCc5ccccc5C4)ccc3N(C)[C@@H]12` [QUILOSTIGMINE], for which it took 148 nM to reach half-maximal inhibition in assay [2] (IC50). Compound `Cc1ccc(NC(=O)Oc2ccc3c(c2)[C@]2(C)CCN(C)[C@@H]2N3C)cc1` yielded a logIC50 in assay [1] of 2.15. In turn, `Cc1ccccc1NC(=O)Oc1ccc2c(c1)[C@]1(C)CCN(C)C1N2Cc1ccccc1` (stereo partly drawn) had a logIC50 in assay [1] of 2. In assay [1], `Cc1cccc(NC(=O)Oc2ccc3c(c2)[C@]2(C)CCN(C)[C@@H]2N3C)c1C` had a logIC50 of 1.36.

In turn, `CNC(=O)Oc1ccc2c(c1)c(C)cn2Nc1ccncc1F` had an IC50 in assay [2] of 100 nM. As to `CNC(=O)Oc1ccc2c(c1)[C@]1(C)CCN(Cc3ccccc3)[C@@H]1N2Cc1ccccc1`, the midpoint of inhibition in assay [2], the IC50, lay at 3560 nM. For the same compound, the logIC50 in assay [1] is 3.55. `C[C@H](c1cccc(OC(=O)N(C)C)c1)N1CCCCC1` yielded an IC50 in assay [2] of 32 nM. With `CNC(=O)Oc1ccc2c(c1)CC[C@@H]1CCN(C)[C@H]21`, the IC50 in assay [2] came to 17.3 nM.

In assay [1], `Cc1ccc(NC(=O)Oc2ccc3c(c2)[C@]2(C)CCN(C)[C@@H]2N3C)cc1C` registered a logIC50 of 1.49. For the compound `CNC(=O)Oc1ccc2c(c1)[C@@]1(C)CCN(C)C1N2` (stereo partly drawn), the logIC50 in assay [1] is 1.75. The same measure, in the same setting: the figure for `Cc1ccccc1NC(=O)Oc1ccc2c(c1)C1(C)COC(C1)O2` (stereo not drawn) is 1.75. The compound `Cc1ccccc1NC(=O)Oc1ccc2c(c1)[C@]1(C)CCN(C)[C@@H]1N2C` [TOLSERINE] came in with an IC50 in assay [2] of 40 nM. For the same compound, the logIC50 in assay [1] worked out at 1. In the case of `CCNC(=O)Oc1ccc2c(c1)[C@]1(C)CCO[C@@H]1N2C`, in assay [1], the logIC50 came to 1.91. Same read-out and setting: the figure for `CCNC(=O)Oc1ccc2c(c1)C1(C)COC(C1)O2` (stereo not drawn) is 2.56.

In the case of `Cc1cc(C)cc(NC(=O)Oc2ccc3c(c2)[C@]2(C)CCN(C)[C@@H]2N3C)c1`, the logIC50 in assay [1] amounted to 1.89. On to `CCc1cccc(CC)c1NC(=O)Oc1ccc2c(c1)[C@]1(C)CCN(C)[C@@H]1N2C`, for which the IC50 in assay [2] came to 690 nM. In assay [1], the logIC50 is 2.84. In assay [1], `CNC(=O)Oc1ccc2c(c1)[C@]1(C)CCN(Cc3ccccc3)C1N2Cc1ccccc1` (stereo partly drawn) returned a logIC50 of 3.04. With `C[C@]12CCNC1Nc1ccc(OC(=O)Nc3ccccc3)cc12` (stereo partly drawn), the logIC50 in assay [1] amounted to 2.36. In turn, `Cc1ccccc1NC(=O)Oc1ccc2c(c1)[C@]1(C)CCN(CCc3ccccc3)C1N2C` (stereo partly drawn) returned a logIC50 in assay [1] of 2.74. Regarding `CNC(=O)Oc1ccc2c(c1)SC[C@@H]1CCN(C)[C@H]21`, the IC50 in assay [2] turned out to be 8.11 nM. In turn, `CNC(=O)Oc1ccc2c(c1)[C@]1(C)CCN(C)C1N2Cc1ccccc1` (stereo partly drawn) yielded a logIC50 in assay [1] of 2.21. On the same count and under the same terms, the figure for `CNC(=O)Oc1ccc2c(c1)[C@@]1(C)CCN(C)C1N2Cc1ccccc1` (stereo partly drawn) is 3.45; for `Cc1ccc(NC(=O)Oc2ccc3c(c2)[C@]2(C)CCN(C)[C@@H]2N3C)c(C)c1` it is 1.15.

In assay [1], `CC(C)c1ccc(NC(=O)Oc2ccc3c(c2)[C@]2(C)CCNC2N3C)cc1` (stereo partly drawn) gave a logIC50 of 2.51.

Take `CCc1ccccc1NC(=O)Oc1ccc2c(c1)[C@]1(C)CCN(C)[C@@H]1N2C`: in assay [1], the logIC50 was determined as 1. Compound `CN(C(=O)Oc1ccc2c(c1)[C@]1(C)CCN(C)[C@@H]1N2C)c1ccccc1` showed an IC50 in assay [2] of 285 nM. In assay [1], the logIC50 came out at 2.46. In turn, `CC(C)c1ccc(NC(=O)Oc2ccc3c(c2)[C@]2(C)CCO[C@@H]2N3C)cc1` returned a logIC50 in assay [1] of 3.59. The same measure, in the same setting: the figure for `Cc1ccccc1NC(=O)Oc1ccc2c(c1)[C@]1(C)CCN(Cc3ccccc3)C1N2Cc1ccccc1` (stereo partly drawn) is 3.25; for `CC(C)c1ccc(NC(=O)Oc2ccc3c(c2)[C@]2(C)CCN(C)C2N3)cc1` (stereo partly drawn) it is 3.31.

Regarding `CCOC(=O)C1=CN(C)c2cccc(OC(=O)N(C)C)c2C1`, half-maximal inhibition in assay [2] (IC50) was put at 7 nM. This counts as single-digit nanomolar. Take `CN1CC[C@@]2(C)c3cc(OC(=O)Nc4ccccc4)ccc3N(C=O)[C@@H]12`: the IC50 in assay [2] turned out to be 330 nM. In assay [1], this compound had a logIC50 of 2.52. In turn, `CNC(=O)Oc1ccc2c(c1)[C@]1(C)CCN(C)[C@@H]1N2` displayed an IC50 in assay [2] of 56.7 nM. In addition, the logIC50 in assay [1] was 1.75. In turn, `CNC(=O)Oc1ccc2c(c1)[C@]1(C)CCO[C@@H]1N2C` showed a logIC50 in assay [1] of 1.43. Regarding `CC(C)c1ccc(NC(=O)Oc2ccc3c(c2)[C@]2(C)CCN(C)C2N3Cc2ccccc2)cc1` (stereo partly drawn), in assay [1], the logIC50 was 4.11.

Take `CNC(=O)Oc1ccc2c(c1)OC[C@@H]1CCN(C)[C@H]21`: in assay [2], the IC50 worked out at 30 nM. For `Cc1ccccc1NC(=O)Oc1ccc2c(c1)[C@]1(C)CCO[C@@H]1N2C`, the logIC50 in assay [1] is 1.11. `CN(C)Cc1cc2c(cc1OC(=O)Nc1ccccc1)[C@]1(C)CCN(C)[C@@H]1N2C`: in assay [2], the IC50 was 780 nM. The same compound came in with a logIC50 in assay [1] of 2.89.
